The values that follow come from publication PMC8074941, “Synthesis of cyclotetrapeptide analogues of c-PLAI and evaluation of their antimicrobial properties” (Royal Society Open Science, 2021).

Converted amounts (≈) assume the structure as drawn. Where two headings read alike, the source gives them in different places. Where a SMILES comes first, the peptide text is derived from it.

Data set [1] is described as follows: head-to-tail lactamisation of linear tetrapeptide (N-terminal Pro amine + C-terminal Ile acid), HATU (2 equiv), DIPEA (3 equiv). The note with it: the molecule shown is the open-chain precursor; 12-membered ring; CH2Cl2 (with ca. 0.2-0.5% DMF); 0.4 mM; 25.0 °C; 1.5 h.
In another data set the test system is C. albicans ATCC 10231. The protocol: (§1) Tools and materials were sterilized in an autoclave for 15 min at 121°C. Fungal culture was grown in agar media (Potato Dextrose agar) by picking some fungal colony using an inoculating loop, followed by incubation at 30°C for 24–48 h. Fungal culture was then suspended in liquid media (Potato Dextrose Broth). The suspended fungal culture was then incubated for 24–48 h at 30°C. The suspended fungal culture was then incubated at 30°C for 24 h and standardized equal to 0.5 Mc Farland (2 × 10^8 CFU ml^−1). The culture was diluted into the concentration of 5 × 10^5 CFU ml^−1.
(§2) Six tetrapeptides and six cyclotetrapeptides were dissolved in DMSO 2% with a concentration of 1 µg mL^−1. Each solution was dissolved gradually. Subsequently, 12 sample solutions, ciprofloxacin, nystatin, ketoconazole and DMSO 2% were incubated on a 96-well microplate at 37°C for 18 h. The result was interpreted using a spectrophotometer, with a wavelength of 600 nm. MIC was measured as the percentage of microbial inhibition and cell death.

The next data set deals with T. mentagrophyte. Description: microbe, parasite or virus in culture. The conditions noted are these: 18 h. The protocol: as §1, §2
Another data set deals with S. aureus ATCC 6538. Description: microbe, parasite or virus in culture. The protocol:
(§3) Tools and materials were sterilized in an autoclave for 15 min at 121°C. Bacterial culture was grown in agar media (Mueller Hinton agar) by picking some bacterial colony using an inoculating loop, followed by incubation at 37°C for 24 h. Bacterial culture was then suspended in liquid media (Mueller Hinton Broth). The suspended bacterial culture was then incubated at 37°C for 24 h and standardized equal to 0.5 Mc Farland (2 × 10^8 CFU ml^−1). The culture was diluted into the concentration of 5 × 10^5 CFU ml^−1.
as §2

A further data set relates to K. pneumonia ATCC 2357. Description: microbe, parasite or virus in culture. The conditions noted are these: for minimum inhibitory concentration (MIC) K. pneumonia ATCC 2357: ATCC 2357, 18 h. The protocol:
as §3, §2

The next data set has as its system E. coli ATCC 11229. Description: microbe, parasite or virus in culture. The note with it: for minimum inhibitory concentration (MIC) E. coli ATCC 11229: ATCC 11229, 18 h. Here is the method: as §3, §2
In another data set the test system is B. cereus ATCC 11778. The data set is described as follows: microbe, parasite or virus in culture. Here is the method: as §3, §2
[2] abbreviates: Potato Dextrose Broth, 5 × 10^5 CFU ml^−1, DMSO 2%, 96-well microplate, 37°C, 18 h, read at 600 nm, single experiment.
The mark [3] stands for this setting: Mueller Hinton Broth, 5 × 10^5 CFU ml^−1, DMSO 2%, 96-well microplate, 37°C, 18 h, read at 600 nm, single experiment.

For the molecule `CC[C@H](C)[C@H](NC(=O)[C@@H](NC(=O)[C@H](CC(C)C)NC(=O)[C@@H]1CCCN1)C(C)C)C(=O)O` [H-Pro-Leu-Val-Ile-OH], the ring closure, isolated yield in data set [1] was found to be 52%.
`C[C@@H]1[C@H](O)[C@@H](C)/C=C/C=C/CC/C=C/C=C/C=C/C=C/C(O[C@H]2O[C@H](C)[C@@H](O)[C@H](N)[C@@H]2O)CC2O[C@](O)(CC(O)C(O)CCC(O)CC(O)CC(O)CC(=O)O[C@H]1C)CC(O)C2C(=O)O` (some centres unmarked) [Nystatin, reference compound]: the “minimum inhibitory concentration (MIC) C. albicans ATCC 10231” value in the data set with C. albicans ATCC 10231 (setting [2]) was determined as 4.88 µg/mL (≈ 5.27 µM).
In the case of `CC(=O)N1CCN(c2ccc(OCC3COC(Cn4ccnc4)(c4ccc(Cl)cc4Cl)O3)cc2)CC1` (centres unmarked) [Ketokonazole, reference compound], the MIC with T. mentagrophyte (Trichophyton mentagrophytes, read-out: minimum inhibitory concentration (MIC) T. mentagrophyte) came out at 312 µg/mL (≈ 588 µM).
As to `CC[C@H](C)[C@H](NC(=O)[C@H](Cc1ccccc1)NC(=O)[C@H](CC(C)C)NC(=O)[C@@H]1CCCN1)C(=O)O` [H-Pro-Leu-Phe-Ile-OH], in data set [1], the ring closure, isolated yield turned out to be 46%.
On to `CC[C@H](C)[C@H](NC(=O)[C@H](C)NC(=O)[C@H](CC(C)C)NC(=O)[C@@H]1CCCN1)C(=O)O` [PLAI] (H-PLAI-OH), for which the “minimum inhibitory concentration (MIC) S. aureus ATCC 6538” value in the data set on S. aureus ATCC 6538 (ATCC 6538, 18 h) was over 1000 µg/mL. Besides, the “minimum inhibitory concentration (MIC) K. pneumonia ATCC 2357” value in the data set on K. pneumonia ATCC 2357 worked out at 250 µg/mL (≈ 606 µM). In addition, the “minimum inhibitory concentration (MIC) E. coli ATCC 11229” value in the data set with E. coli ATCC 11229 was over 1000 µg/mL. Moreover, the “minimum inhibitory concentration (MIC) C. albicans ATCC 10231” value in the data set on C. albicans ATCC 10231 (ATCC 10231, 18 h) was over 1000 µg/mL.
For `CC[C@H](C)[C@@H]1NC(=O)[C@H](C(C)C)NC(=O)[C@H](CC(C)C)NC(=O)[C@@H]2CCCN2C1=O` [c-PLVI, cyclo-(pro-leu-val-ile)] (cyclo(PLVI)), the “minimum inhibitory concentration (MIC) T. mentagrophyte” value with T. mentagrophyte was 62.50 µg/mL (≈ 148 µM). Besides, the “minimum inhibitory concentration (MIC) S. aureus ATCC 6538” value in the data set on S. aureus ATCC 6538 (ATCC 6538, 18 h) was found to be 500 µg/mL (≈ 1180 µM). In the data set on B. cereus ATCC 11778 (ATCC 11778, 18 h), the “minimum inhibitory concentration (MIC) B. cereus ATCC 11778” value was 125 µg/mL (≈ 296 µM). The “minimum inhibitory concentration (MIC) K. pneumonia ATCC 2357” value with K. pneumonia ATCC 2357 was determined as 250 µg/mL (≈ 592 µM). Moreover, the “minimum inhibitory concentration (MIC) E. coli ATCC 11229” value in the data set on E. coli ATCC 11229 is 125 µg/mL (≈ 296 µM). Also, in the data set with C. albicans ATCC 10231 (ATCC 10231, 18 h), the “minimum inhibitory concentration (MIC) C. albicans ATCC 10231” value is 500 µg/mL (≈ 1180 µM).
On to `CC[C@H](C)[C@@H]1NC(=O)[C@H](Cc2ccccc2)NC(=O)[C@H](CCCCN)NC(=O)[C@@H]2CCCN2C1=O` [c-PKFI, cyclo-(pro-lys-phe-ile)] (cyclo(PKFI)), for which the “minimum inhibitory concentration (MIC) T. mentagrophyte” value with T. mentagrophyte is 125 µg/mL (≈ 257 µM). Also, the “minimum inhibitory concentration (MIC) S. aureus ATCC 6538” value in the data set on S. aureus ATCC 6538 (setting [3]) worked out at 62.5 µg/mL (≈ 129 µM). Besides, in the data set with B. cereus ATCC 11778 (setting [3]), the “minimum inhibitory concentration (MIC) B. cereus ATCC 11778” value stood at 62.5 µg/mL (≈ 129 µM). Besides, in the data set on K. pneumonia ATCC 2357, the “minimum inhibitory concentration (MIC) K. pneumonia ATCC 2357” value turned out to be 250 µg/mL (≈ 515 µM). Also, in the data set with E. coli ATCC 11229, the “minimum inhibitory concentration (MIC) E. coli ATCC 11229” value came to 31.25 µg/mL (≈ 64.3 µM). For the same molecule, the “minimum inhibitory concentration (MIC) C. albicans ATCC 10231” value in the data set with C. albicans ATCC 10231 (setting [2]) turned out to be 62.50 µg/mL (≈ 129 µM).
Turning to `CC[C@H](C)[C@H](NC(=O)[C@H](Cc1ccccc1)NC(=O)[C@H](CCCCN)NC(=O)[C@@H]1CCCN1)C(=O)O` [PKFI] (H-PKFI-OH), the “minimum inhibitory concentration (MIC) T. mentagrophyte” value with T. mentagrophyte came out at 500 µg/mL (≈ 993 µM). In addition, the “minimum inhibitory concentration (MIC) S. aureus ATCC 6538” value with S. aureus ATCC 6538 (ATCC 6538, 18 h) came out at 250 µg/mL (≈ 496 µM). For the same molecule, the “minimum inhibitory concentration (MIC) B. cereus ATCC 11778” value with B. cereus ATCC 11778 (ATCC 11778, 18 h) turned out to be 250 µg/mL (≈ 496 µM). Moreover, the “minimum inhibitory concentration (MIC) K. pneumonia ATCC 2357” value in the data set on K. pneumonia ATCC 2357 came out at 500 µg/mL (≈ 993 µM). The “minimum inhibitory concentration (MIC) E. coli ATCC 11229” value in the data set on E. coli ATCC 11229 was determined as 250 µg/mL (≈ 496 µM). Moreover, the “minimum inhibitory concentration (MIC) C. albicans ATCC 10231” value in the data set on C. albicans ATCC 10231 (ATCC 10231, 18 h) turned out to be 250 µg/mL (≈ 496 µM).
As for `O=C(O)c1cn(C2CC2)c2cc(N3CCNCC3)c(F)cc2c1=O` [Ciprofloxacin, reference compound], the MIC with S. aureus ATCC 6538 (Staphylococcus aureus, ATCC6538, 18 h, read-out: minimum inhibitory concentration (MIC) S. aureus ATCC 6538) stood at 0.098 µg/mL (≈ 0.296 µM); in the data set on B. cereus ATCC 11778 (Bacillus cereus, ATCC11778, 18 h, read-out: minimum inhibitory concentration (MIC) B. cereus ATCC 11778) it was 0.195 µg/mL (≈ 0.589 µM); in the data set on K. pneumonia ATCC 2357 (Klebsiella pneumoniae, ATCC2357, 18 h, read-out: minimum inhibitory concentration (MIC) K. pneumonia ATCC 2357) it was 0.391 µg/mL (≈ 1.18 µM); in the data set on E. coli ATCC 11229 (Escherichia coli, ATCC11229, 18 h, read-out: minimum inhibitory concentration (MIC) E. coli ATCC 11229), 1.56 µg/mL (≈ 4.71 µM).
Turning to `CC[C@H](C)[C@H](NC(=O)[C@H](Cc1ccccc1)NC(=O)[C@H](CC(C)C)NC(=O)[C@@H]1CCCN1)C(=O)O` [PLFI] (H-PLFI-OH), the “minimum inhibitory concentration (MIC) S. aureus ATCC 6538” value with S. aureus ATCC 6538 (ATCC 6538, 18 h) is over 1000 µg/mL. The “minimum inhibitory concentration (MIC) B. cereus ATCC 11778” value in the data set with B. cereus ATCC 11778 (ATCC 11778, 18 h) was found to be 500 µg/mL (≈ 1020 µM). Moreover, the “minimum inhibitory concentration (MIC) K. pneumonia ATCC 2357” value in the data set on K. pneumonia ATCC 2357 is over 1000 µg/mL. Moreover, the “minimum inhibitory concentration (MIC) E. coli ATCC 11229” value with E. coli ATCC 11229 was over 1000 µg/mL. The “minimum inhibitory concentration (MIC) C. albicans ATCC 10231” value in the data set on C. albicans ATCC 10231 (ATCC 10231, 18 h) was over 1000 µg/mL.
